Laboratory results from patent publication US6245758A, “Methods of use for peroxynitrite decomposition catalysts, pharmaceutical compositions therefor” (priority 1996, dated 2001).
Where two headings read alike, the source gives them in different places.

Experiments:
CuZnSOD = test: Inactivation of CuZnSOD by peroxynitrite (stopped flow superoxide dismutase activity)
Description: Stock solutions of bovine liver CuZnSOD (DDI Pharmaceuticals Inc., Mountain View CA) were prepared by dissolving -1.0 mg of enzyme in 10 mL of 50 mM potassium phosphate buffer at a pH=7.4. […] All kobs were the average of triplicate runs using a stopped flow spectrophotometer manufactured by Kinetic Instruments Inc. (Ann Arbor, Mich.) and was interfaced to a MAC IICX personal computer.
Inactivation of CuZn SOD by peroxynitrite.
Inactivation of peroxynitrite was performed by aloquating 1.0 mL of stock CuZn SOD solution into 50 mM potassium phosphate buffer pH=7.4 such that a final assay volume of 10 mL is achieved after addition of peroxynitrite and EDTA solutions. To these assay solution was added various amounts of peroxynitrite (25 mM stock solution) such that the final concentration of peroxynitrite in the assay varied from 0, 25, 50, 75 and 100 uM. After the addition of peroxynitrite, 100 uL of a 2.5 mM stock EDTA solution was added to each assay solution such that the final concentration of EDTA was 250 uM. Each solution was then assayed by stopped flow analysis for superoxide dismutase activity.

rat jejunum = test: Intestinal vascular permeability (radiolabelled albumin leakage) after endotoxin (LPS); type: in vivo; conditions: 30 mg/kg, i.v, 3 h after LPS; determined 1 h later
Description: FIG. 10 . Effects of FeTMPS, FeTMPyP or ZnTMPyP (30 mg/kg, i.v bolus) administered 3 h after challenge with E. coli lipopolysaccharide (LPS, 3 mg/kg, i.v bolus) on the increase in leakage of radio-labelled albumin (plasma extravasation, μl/g tissue) observed 1 h later (e.g 4 h after LPS challenge) in the rat jejunum. Results are shown as mean±s.e.m of 4-8 rats.
Intestinal vascular permeability was determined as the leakage into the jejunal tissue of [^125 I]-labelled bovine serum albumin ([^125 ]-BSA) administered intravenously (0.5 ml; 0.5 μCi) together with either LPS (3 mg/kg, serotype O111:B4) or isotonic saline. At 4 h after LPS administration, segments of jejunal tissue were ligated and removed. The intestinal tissues were rapidly washed, blotted dry and weighed. Blood (0.5 ml) was collected into tubes containing tri-sodium citrate (0.318% final concentration) and plasma prepared by centrifugation (10,000 g×10 min). The {^125 I]-BSA content in segments of whole tissue and in aliquots of plasma (100 μl) was determined in a gamma counter. The total content of plasma in the intestinal tissues was expressed as μl/g tissue. Changes in intravascular volume in the intestinal tissue was determined in an additional group of rats by administering ([^125 I]-BSA) intravenously 2 min before removal of the jejunum. The tissue and plasma content of radiolabel was determined and intravascular volume expressed as μl/g tissue. This value was substracted from that obtained in the plasma leakage studies to obtain a measure of the intestinal plasma albumin leakage. After LPS administration (4 h), there was a significant (P<0.01) increase in the plasma leakage (from 77±10 to 224±18 μl/g tissue, n=8).

RAW 264.7 cells = test: Cell protection assay, Alamar Blue viability after peroxynitrite challenge; type: cell-based, murine
Description: FIG. 8: Comparison of Ni and Fe Catalyst Protection of RAW Cells from PN(peroxynitrite)-mediated Injury. RAW 264.7 cells were plated at approximately 2×10^5 per well of a 96-well plate. […] Each condition represents the mean of 4 wells ±sem.
FIG. 9: Protection from PN-mediated RAW Cell Injury by Fe Catalysts. Cells were treated with 500 micromolar PN in the presence or the absence of the following catalysts: FeTMPyP, FeTMPS, FeTPPS. Cell viability was monitored as described in the text and figure legends 1, 2 and 3. Values represent the mean of 4 determinations ±sem.
(§1) Protocol for Cell Protection Assays using Peroxynitrite Decomposition Catalysts: A cell viability assay was established to rapidly assess the efficacy of peroxynitrite(PN) catalysts in protecting cells from PN25 mediated injury and death. The peroxynitrite challenge consisted of a pulse of synthetic PN added exogenously to cells. In order to better assess the efficacy of PN catalysts in protecting cells from PN-mediated damage, a quantity of peroxynitrite(in 50 mM NaOH) determined to cause maximal injury(100%) was added as an exogenous pulse to each well of cells in the presence or absence of catalyst. The NaOH vehicle was not toxic by itself.
(§2) Cells(RAW 264.7 cells or P815 mastocytoma cells; American Type Culture Collection, Rockville, Md.) were plated to confluence on 96-well tissue culture plates. Each well is washed twice with Dulbecco's phosphate buffered saline(DPBS; GIBCO BRL, Grand Island, N.Y.) to remove protein and other serum components which might react with the exogenous peroxynitrite. To each well is then added 200 μl of DPBS. PN is next placed into separate wells at increasing concentrations and cell viability monitored. The dose at which maximal cell death is attained is then utilized for the catalyst protection assessment.
Phosphate-buffered saline (200 uL) containing increasing concentrations of catalyst is next placed into individual wells of cells. The maximal dose of PN is subsequently administered to all wells of cells. After 15 minutes, the medium is removed from each well and the cells are either allowed to recover overnight in Earles minimum essential medium without phenol red and supplemented with 10% fetal bovine serum or alternatively the plate of cells is assayed that day for mitochondrial integrity using the Alamar Blue viability assay(Alamar Biosciences, Inc.; Sacramento, Calif.). In either case, cells are incubated at 37° C. in 5% CO2.
Cell injury is measured as follows. Briefly, 10% Alamar Blue(v/v) in Earles MEM with 10% FBS is added to each well of cells for 1-2h. Cell metabolism of the dye generates a fluorescent product which is directly related to the number of viable cells. Moreover, the production of the fluorescent metabolite is linear for over 2 h. The amount of fluorescent product in 100 μl of conditioned medium from each well of cells is then measured with an IDEXX fluorescent plate reader (gain setting of 1%) at an emission wavelength of 575 nm after exciting at 545 nm. Viability is either given as absolute fluorescent units or as a percent of the value obtained for untreated cells(100%).

[1] = Stopped-flow kinetic analysis of catalytic decomposition of peroxynitrite by metal complexes; conditions: pH = 7.4, 22° C.
Description: To screen metal complexes for peroxynitrite decomposition catalytic activity of the present invention, peroxynitrite is prepared and isolated as its sodium salt by the reaction of acidic hydrogen peroxide with sodium nitrite followed by rapid quenching with NaOH as set out by Halfpenny and Robinson, in J. Chem. So., 1952, 928-938. Peroxynitrite has an absorbance maximum at 302 nm with an extinction coefficient of 1670 M^-1 cm^-1. Therefore, it is possible to directly observe the decomposition of peroxynitrite by stop-flow spectrophotometric analysis by monitoring the decomposition of the absorbance at 302 nm. That is, such observation of the decomposition of peroxynitrite at a rate accelerated over the natural decomposition rate with the addition of the metal complex identifies a compound of the present invention.
Kinetic measurements were made on an OLIS Rapid Scanning Stopped-Flow Spectrometer (On-Line Instrument Systems Inc., Bogart, Ga.)) using the OLISRSM-1000 Operating system for data acquisition and manipulation.
Thus, in a typical experiment the natural background decomposition rate of sodium peroxynitrite was determined as follows. A 24 mM stock solution of sodium peroxynitrite in 50 mM NaOH is load into the small volume syringe and 100 mM potassium phosphate pH=7.4 is charged into the large volume syringe of the stopped-flow spectrophotometer. All stopped -flow measurements were made at 22 ° C. Injection of the solutions into the sample compartment results in ~25 fold dilution of the stock sodium peroxynitrite. […] To test for catalytic peroxynitrite decomposition activity, the metal complex was dissolved in 100 mM potassium phosphate buffer pH=7.4 and loaded into the large syringe and the decomposition of peroxynitrite was monitored as described above. The catalytic rate constant (kcat M-1 sec^-1) for the complexes tested was determined by varying the complex concentration and plotting kobs vs [complex] Table 1. The kobs were obtained from averages of three stopped flow analysis at each catalyst concentration.

[2] = test system: carrageenan-induced paw edema; test: Carrageenan-induced paw edema; type: in vivo, rat; conditions: 30 mg/kg i.v.
From the text: Carrageenan-induced paw edema. The effects of peroxynitrite catalysts in vivo were initially tested on the carrageenan-induced paw edema. The choice of using this in vivo model of inflammation was based on the knowledge that 1) the inflammatory response is blocked by NOS inhibitors and 2) by superoxide dismutase (SOD). This indicates the participation of both NO and of O2-. Male Sprague Dawley rats were purchased from Harlan Sprague-Dawley (Indianapolis, Ind.). Male Sprague Dawley rats (175-200 g) received a subplantar injection in the right hind paw of carrageenan (0.1 ml of a 1% suspension in 0.85% saline). Paw volume was measured by a plethysmometer immediately before the injection of carrageenan and then at hourly intervals from 1 to 6 h. Edema was expressed as the increase in paw volume (in ml) measured after carrageenan injection compared to the pre-injection value for individual animals.

RAW and P815 cells = test: Comparison of increasing PN doses on RAW and P815 cells; type: cell-based, murine; conditions: data not shown
Description: as §1
as §2, with “To each well is then added 200 μl of DPBS.” left out, “The dose at which maximal cell death is attained is then utilized for the catalyst protection assessment.” left out
Cell injury is measured as follows. […] The amount of fluorescent product in 100 μl of conditioned medium from each well of cells is then measured with an IDEXX fluorescent plate reader (gain setting of 1%) at an emission wavelength of 575 nm after exciting at 545 nm. […]

[3] = test system: human dermal microvascular endothelial cells (HDME cells); test: Endothelial cell injury assay (51Cr release), authentic peroxynitrite; type: cell-based; conditions: 45 min, peroxynitrite 0-800 uM
Description: FIG. 5: Peroxynitrite-mediated human microvascular endothelial cell injury. Authentic peroxynitrite was overlaid directly onto to ^51 Cr-labeled HMDE cells grown in 96-well cell culture plates. After 45 min the amount of specific cell injury was determined and correlated to peroxynitrite concentration by least squares regression line. Values represent the average of three replicates +/-SEM.
FIG. 6: Peroxynitrite catalysts, Fe(TMPyP) (triangle) and Ni(II)dienoN4)PF6 (circle) were added to HDME cells in the cell injury assay immediately before the addition of authentic peroxynitrite. After 45 min, the amount of specific cell injury was assessed by the amount of radiolabel released into the medium. Values represent the average of three replicas +/-SEM. *p<0.01 vs. 0 uM control by Dunnett's t Test.
[…]: Human recombinant tumor necrosis factor-alpha (TNF-a) was obtained from Genzyme Corporation, Cambridge, MA. Human recombinant complement C5a and L-arginine (L-arg) was purchased from Sigma Chemical Company, St. Louis, Mo. Authentic peroxynitrite in 50 mM NaOH was prepared as described above. […]
Endothelial Cell Injury Assays: The cytotoxic effects of stimulated neutrophils or peroxynitrite on endothelial cells was determined using a ^51 Cr-release assay as described by Moldow (Moldow et. al. Methods Enzymol., 105, 378-385, [1984]). […]

[4] = Natural background decomposition of peroxynitrite; type: physicochemical; conditions: 22 ° C, 100 mM potassium phosphate pH=7.4
Description: Thus, in a typical experiment the natural background decomposition rate of sodium peroxynitrite was determined as follows. A 24 mM stock solution of sodium peroxynitrite in 50 mM NaOH is load into the small volume syringe and 100 mM potassium phosphate pH=7.4 is charged into the large volume syringe of the stopped-flow spectrophotometer. All stopped -flow measurements were made at 22 ° C. Injection of the solutions into the sample compartment results in ~25 fold dilution of the stock sodium peroxynitrite. […] To test for catalytic peroxynitrite decomposition activity, the metal complex was dissolved in 100 mM potassium phosphate buffer pH=7.4 and loaded into the large syringe and the decomposition of peroxynitrite was monitored as described above. The catalytic rate constant (kcat M-1 sec^-1) for the complexes tested was determined by varying the complex concentration and plotting kobs vs [complex] […] The kobs were obtained from averages of three stopped flow analysis at each catalyst concentration.

[5] = Beckman et al. 1990, cited from earlier work

Question: Which “CuZnSOD activity in control reaction” value (CuZnSOD; 250 uM EDTA alone) does the source give for `O=C(O)CN(CCN(CC(=O)O)CC(=O)O)CC(=O)O` [EDTA] here?
Answer: no decrease in CuZnSOD activity

Question: For `C[n+]1ccc(-c2c3nc(c(-c4cc[n+](C)cc4)c4ccc([nH]4)c(-c4cc[n+](C)cc4)c4nc(c(-c5cc[n+](C)cc5)c5ccc2[nH]5)C=C4)C=C3)cc1.[Zn+2]` [ZnTMPyP, reference compound], which radiolabelled albumin leakage (rat jejunum) is on record?
Answer: did not inhibit radiolabelled albumin leakage

Question: And the “protection of cells from PN-mediated injury” value (RAW 264.7 cells; PN 500 micromolar, RAW cells, FIG. 9 (H2 TMPyP and ZnTMPyP: data not shown))?
Answer: relatively ineffective

Question: What about the “kcat, catalytic rate constant for the decomposition of sodium peroxynitrite” value [1] of the same molecule?
Answer: Inactive

Question: And the “inhibition of edema formation” value [2]?
Answer: failed to inhibit edema formation

Question: What does the source list for `O=NOO` [peroxynitrite, sodium peroxynitrite]?
Answer: decrease in cell viability caused by PN (RAW 264.7 cells; RAW 264.7, PN dose of FIG. 8 experiment): 50%; inactivation of CuZnSOD (CuZnSOD; peroxynitrite 0-100 uM): inactivates CuZnSOD enzyme in a concentration dependant manner; differential susceptibility of RAW and P815 cells to peroxynitrite-mediated injury (RAW and P815 cells): no evidence for a differential susceptibility to peroxynitrite-mediated injury; endothelial cell injury by peroxynitrite [3]: dose dependent increase in cell injury; kobs of decomposition of sodium peroxynitrite [4]: 1.39×10^-1±0.15 sec^-1; t1/2 of decomposition of sodium peroxynitrite [4]: 5.2 see; t1/2 of decomposition of sodium peroxynitrite ([5]; 37° C, pH=7.4): 1.9 s; observed rate for the decomposition of peroxynitrite ([5]; pH 7.4, 37° C): 3.6×10^-1 sec-i
